Experimental data from ChEMBL document CHEMBL1201862, “PubChem BioAssay data set” (2004).
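All cell lines were grown in 96-well plates and treated with compound for 48 hours. Abbreviation: GI50, concentration required for 50% inhibition of growth.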 The source made the active and inactive calls. Rule as the data show it: active = GI50 up to about 1.1 µM and inactive = higher.

What was measured:
Assay in all cases: growth of human tumour cells (NCI), 48 h
786-0 = tested on: 786-0
A498 = tested on: A498
A549 = tested on: A549
ACHN = tested on: ACHN
BT-549 = tested on: BT-549
CAKI-1 = tested on: CAKI-1
CCRF-CEM = tested on: CCRF-CEM
COLO 205 = tested on: COLO 205
DU-145 = tested on: DU-145
EKVX = tested on: EKVX
HCC 2998 = tested on: HCC 2998
HCT-116 = tested on: HCT-116
HCT-15 = tested on: HCT-15
HL-60 = tested on: HL-60
HOP-62 = tested on: HOP-62
HOP-92 = tested on: HOP-92
HT-29 = tested on: HT-29
Hs-578T = tested on: Hs-578T
IGROV-1 = tested on: IGROV-1
K562 = tested on: K562
KM12 = tested on: KM12
LOX IMVI = tested on: LOX IMVI
M14 = tested on: M14
MCF7 = tested on: MCF7
MDA-MB-231 = tested on: MDA-MB-231
MDA-MB-435 = tested on: MDA-MB-435
MDA-N = tested on: MDA-N
MOLT-4 = tested on: MOLT-4
Malme-3M = tested on: Malme-3M
NCI-H226 = tested on: NCI-H226
NCI-H23 = tested on: NCI-H23
NCI-H460 = tested on: NCI-H460
NCI-H522 = tested on: NCI-H522
NCI/ADR-RES = tested on: NCI/ADR-RES
OVCAR-3 = tested on: OVCAR-3
OVCAR-4 = tested on: OVCAR-4
OVCAR-5 = tested on: OVCAR-5
OVCAR-8 = tested on: OVCAR-8
PC-3 = tested on: PC-3
RPMI-8226 = tested on: RPMI-8226
SF-268 = tested on: SF-268
SF-295 = tested on: SF-295
SF-539 = tested on: SF-539
SK-MEL-28 = tested on: SK-MEL-28
SK-MEL-5 = tested on: SK-MEL-5
SK-OV-3 = tested on: SK-OV-3
SN12C = tested on: SN12C
SNB-19 = tested on: SNB-19
SNB-75 = tested on: SNB-75
SR = tested on: SR
SW-620 = tested on: SW-620
TK-10 = tested on: TK-10
U-251 = tested on: U-251
UACC-257 = tested on: UACC-257
UACC-62 = tested on: UACC-62
UO-31 = tested on: UO-31

With COc1ccc(/C=C2\CCCc3ccccc3C2=O)cc1 the GI50 (786-0) was 56.1 nM (active), the GI50 (A498) was 104 nM (active) and the GI50 (A549) was 197 nM (active). The GI50 (ACHN) was 3150 nM (inactive), the GI50 (BT-549) was 143 nM (active) and the GI50 (CAKI-1) was 2820 nM (inactive). For the same molecule, the GI50 (CCRF-CEM) was 578 nM (active), the GI50 (COLO 205) was 90.4 nM (active) and the GI50 (DU-145) was 185 nM (active). For the same molecule, the GI50 (EKVX) was 390 nM (active), the GI50 (HCC 2998) was 200 nM (active) and the GI50 (HCT-116) was 244 nM (active). The GI50 (HCT-15) was 72.3 nM, the GI50 (HL-60) was 279 nM (active) and the GI50 (HOP-62) was 187 nM (active). The GI50 (HOP-92) was 893 nM (active), the GI50 (HT-29) was 84.9 nM (active) and the GI50 (Hs-578T) was 233 nM (active). The GI50 (IGROV-1) was 57.3 nM (active), the GI50 (K562) was 330 nM (active) and the GI50 (KM12) was 158 nM (active). The GI50 (LOX IMVI) was 179 nM (active), the GI50 (M14) was 33.5 nM (active) and the GI50 (MCF7) was 1270 nM (inactive). The GI50 (MDA-MB-231) was 201 nM (active), the GI50 (MDA-MB-435) was 15.4 nM (active) and the GI50 (MDA-N) was 13.2 nM (active). For the same molecule, the GI50 (MOLT-4) was 1630 nM (inactive), the GI50 (Malme-3M) was 17.4 nM (active) and the GI50 (NCI-H226) was 116 nM (active). The GI50 (NCI-H23) was 122 nM (active), the GI50 (NCI-H460) was 89.3 nM (active) and the GI50 (NCI-H522) was < 21.8 nM (active). For the same molecule, the GI50 (NCI/ADR-RES) was 41.6 nM (active), the GI50 (OVCAR-3) was 98.2 nM (active) and the GI50 (OVCAR-4) was 14500 nM (inactive). The GI50 (OVCAR-5) was 605 nM (active), the GI50 (OVCAR-8) was 228 nM (active) and the GI50 (PC-3) was 321 nM (active). For the same molecule, the GI50 (RPMI-8226) was 411 nM (active), the GI50 (SF-268) was 249 nM (active) and the GI50 (SF-295) was 26 nM (active). The GI50 (SF-539) was 287 nM (active), the GI50 (SK-MEL-28) was 3830 nM (inactive) and the GI50 (SK-MEL-5) was 102 nM (active). The GI50 (SK-OV-3) was 119 nM (active), the GI50 (SN12C) was 117 nM (active) and the GI50 (SNB-19) was 360 nM (active). For the same molecule, the GI50 (SNB-75) was 64.9 nM (active), the GI50 (SR) was 452 nM (active) and the GI50 (SW-620) was 378 nM (active). For the same molecule, the GI50 (TK-10) was 9060 nM (inactive), the GI50 (U-251) was 508 nM (active) and the GI50 (UACC-257) was 3130 nM (inactive). For the same molecule, the GI50 (UACC-62) was 29.2 nM (active) and the GI50 (UO-31) was 1640 nM (inactive).
